# Where two headings read alike, the source gives them in different places.
# System: HBV
# Assay: HBV replication inhibition assay (BDNA assay) in HepG2.2.15 cells
# Assay type: cell-based
# Conditions: HepG2.2.15 cells, read-out: DNA EC50
# Summary of the method: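 HepG2.2.15 cells with stably integrated HBV were treated with serially diluted compounds at 0.5% DMSO for 6 days, with medium and compound refreshed at day 3. Encapsidated HBV DNA from DNase-treated supernatant was quantified by branched DNA assay. EC50 came from % inhibition versus DMSO, fitted non-linearly.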
# [1] = Hepatitis B virus, HepG2.2.15, HBV replication assay (BDNA assay)
Structure (SMILES),EC50 [1],EC50 (HBV replication assay (BDNA assay))
"CN1OC(CF)Cn2nc3c(c2C1=O)CN(C(=O)Nc1ccc(F)c(C#N)c1)CC3 (single isomer, unassigned) [Compound 042_E1, (S*)—N-(3-cyano-4-fluorophenyl)-4-(fluoromethyl)-2-methyl-1-oxo-1,4,5,8,9,11-hexahydropyrido[4′,3′:3,4]pyrazolo[5,1-d][1,2,5]oxadiazepine-10(2H)-carboxamide]",1 to 100 nM,–
"C[C@@H]1Cc2nn3c(c2CN1C(=O)Nc1cc(Cl)c(F)cc1F)C(=O)N(C)OC(COCC(F)F)C3 (stereo partly drawn) [Compound 127_D1, (45*,9R)—N-(5-chloro-2,4-difluorophenyl)-4-((2,2-difluoroethoxy)methyl)-2,9-dimethyl-1-oxo-1,4,5,8,9,11-hexahydropyrido[4′,3′:3,4]pyrazolo[5,1-d][1,2,5]oxadiazepine-10(2H)-carboxamide]",–,100 to 500 nM
"CN1OC(CO)Cn2nc3c(c2C1=O)CN(C(=O)Nc1ccc(F)c(C#N)c1)CC3 (single isomer, unassigned) [Compound 034_E1, (S*)—N-(3-cyano-4-fluorophenyl)-4-(hydroxymethyl)-2-methyl-1-oxo-1,4,5,8,9,11-hexahydropyrido[4′,3′:3,4]pyrazolo[5,1-d][1,2,5]oxadiazepine-10(2H)-carboxamide]",1 to 100 nM,–

# — US10987359B2, “Oxadiazepinone derivatives and methods of treating hepatitis B infections” (priority 2016, dated 2021)
